The values below come from patent publication US10317393B2, “Alkynyl sugar analogs for labeling and visualization of glycoconjugates in cells” (Academia Sinica, priority 2007, dated 2019).

Assay [1] concerns Jurkat cells. The assay is described as follows: Flow cytometry of cell surface labeling after click with biotin azide probe 6 and fluorescein-conjugated streptavidin. In kind it is cell-based, human. The protocol:
In another exemplary implementation, a method for labeling fucosylated glycoconjugates at the cell surface is disclosed. In one aspect, Jurkat cells are grown in the presence of derivatized alkynyl Fuc 1. After treatment, cells are subjected to CuAAC (click chemistry) to couple biotinylated azido probe 6 with any alkynyl Fuc-bearing glycoconjugates, and stained with fluorescein-conjugated streptavidin.
Labeling alkynyl Fuc-bearing cell surface glycoconjugates is illustrated in FIGS. 1A, 1B, 1C and 1D. FIGS. 1A, 1B, 1C and 1D show analysis of cells tagged with Fuc analogs analyzed by monitoring fluorescence intensity with flow cytometry after labeling with a biotin azide probe 6 and staining cells with fluorescein-conjugated streptavidin. […] Without being bound by theory, incorporation of the derivatized Fuc analogs into fucosylated glycoconjugates likely occurs via the Fuc salvage pathway.
It is now disclosed in one exemplary implementation of the disclosure that treating cells with derivatized alkynyl ManNAc 4 results in derivatized alkyne-bearing sialyl glycoconjugates. In one aspect of the method, cells are treated with 4 at various concentrations for one to 3 days. Modified sugar analogs and probes used in this disclosure are shown in Scheme 1. Tagging of the cell surface glycoconjugates by derivatized alkynyl ManNAc is illustrated in FIGS. 2A, 2B, 2C and 2D. FIGS. 2A, 2B, 2C and 2D show analysis of cells labeled with ManNAc analogs analyzed by monitoring fluorescence intensity with flow cytometry after clicking on the biotin azide probe 6 and staining cells with fluorescein-conjugated streptavidin. […] Compared with the MFI of controls, there was significant labeling on cells treated with derivatized alkynyl ManNAc 4, even at concentrations as low as 3 micromolar (15-fold increase). […] The optimal concentration of 4 for tagging sialyl glycoconjugates falls between 25 and 50 micromolar.
Jurkat cells were cultivated (2×10^6/10 ml) in RPMI medium 1640 supplemented with 10% FCS and various concentrations of peracetylated alkynyl sugars 1, 2, or 4 or native sugars 3 or 5, for 1-3 days at 37° C. Cells were then harvested, washed with 0.1% FCS/PBS, and resuspended (10^6 cells) in 100 microliters of click reaction solution (0.1 mM biotin probe 6 or fluorogenic probe 7/0.1 mM Tris-thiazoleamine catalyst/0.1 mM CuSO4/0.5 mM sodium ascorbate, in PBS). The reaction was incubated at room temperature for 30 min, and then the cells were washed twice with 0.1% FCS/PBS. Cells treated with biotin probe 6 were subsequently stained with fluorescein-conjugated streptavidin (0.5 microgram per sample in 50 microliters of 1% FCS/PBS) for 30 min at 4° C., and washed three times with 1% FCS/PBS. Data were acquired by BD LSR II with FACSDiva software, and were analyzed by CellQuestPro software (BD Biosciences). Detection of fluorescent adduct with probe 7 was monitored with a 408 nm laser and a 440/40 bandpass filter for excitation and emission, respectively.

The test system of assay [2] is Jurkat cells. The assay is described as follows: Flow cytometry of cell surface labeling with fluorogenic coumarin probe 7. It is filed as cell-based, human. The conditions noted are these: 200 micromolar Fuc analogs or 25 micromolar ManNAc analogs, 3 days. An excerpt: FIGS. 3A and 3B show tagging of cell surface glycans by derivatized alkynyl sugar analogs and subsequent labeling with probe 3-azido-7-hydroxycoumarin 7. Shown is flow cytometry analysis of Jurkat cells tagged with 200 micromolar derivatized alkynyl Fuc 1 shown in FIG. 3A or 25 micromolar alkynyl-derivatized ManNAc 4 shown in FIG. 3B for 3 days. The fluorescence intensity was detected after labeling with a coumarin probe 7. Filled histogram, cells treated with control sugar analog 3 or 5; open histogram, cell treated with alkynyl-derivatized sugar 1 or 4.
Recently, another click-activated azido-derivatized fluorescent probe, based on coumarin, was reported in the literature. In one aspect of the disclosure, the fluorogenic probe, 3-azido-7-hydroxycoumarin 7, is used as the coupling partner for alkynyl tags on labeled glycoconjugates.
Jurkat cells were cultivated (2×10^6/10 ml) in RPMI medium 1640 supplemented with 10% FCS and various concentrations of peracetylated alkynyl sugars 1, 2, or 4 or native sugars 3 or 5, for 1-3 days at 37° C. […] Data were acquired by BD LSR II with FACSDiva software, and were analyzed by CellQuestPro software (BD Biosciences). Detection of fluorescent adduct with probe 7 was monitored with a 408 nm laser and a 440/40 bandpass filter for excitation and emission, respectively.

Another assay relates to H. pylori. Put plainly: Labeling and detection of fucosylated glycoconjugates in H. pylori (immunoprecipitation, SDS-PAGE, protein blot). In kind it is cell-based, Helicobacter pylori. The protocol: Representative H. pylori strains isolated from human gastric biopsy specimens, including gastritis (HS), duodenal ulcer (HD), gastric ulcer (HU) and gastric cancer (HC), were subjected to MOE: all the strains were grown on CDC agar plate supplemented with 200 micromolar derivatized alkynyl Fuc 1 for two days under micro-aerobic atmosphere (5% O2, 15% CO2, 80% N2). […] Immunoprecipitates were then analyzed by SDS-PAGE and stained for visualization. […]
Protein extracts were prepared in lysis buffer (1% NP-40, 150 mM NaCl, 100 mM sodium phosphate pH 7.5, 1×EDTA-free protease inhibitor cocktail) and labeled with biotin probe 6 (protein 1 mg/ml with 0.1 mM azido biotin 6/0.1 mM Tris-thiazoleamine catalyst/1 mM CuSO4/2 mM sodium ascorbate in lysis buffer) via cycloaddition at room temperature for 1 h. […] Immunoprecipitates were then analyzed by SDS-PAGE and stained for visualization. […]
Detection of CagA on protein blots: Protein extracted from control or alkynyl Fuc 1 analog-treated HC samples were subjected to cycloaddition labeling to label with biotin probe (protein 1 mg/ml with 0.1 mM azido biotin 6/0.1 mM Tris-thiazoleamine catalyst/1 mM CuSO4/2 mM sodium ascorbate in lysis buffer), followed by immunoprecipitation with anti-CagA antibody (Santa Cruz). The derivatized alkynyl Fuc tags/biotin labeling on CagA protein were detected by peroxidase-conjugated streptavidin on protein blot.

As to “1,2,3,4-tetraacetyl alkynyl fucose [alkynyl Fuc 1]”, the “saturation of incorporation, incubation time” value with Jurkat cells [1] (200 micromolar) is given as “one”. Also, the “mean fluorescence intensity (MFI) compared with Fuc treated cells” value in the assay with Jurkat cells [1] (200 micromolar, biotin probe 6/fluorescein-streptavidin) stood at 3 fold. The “dose dependency of glycan tagging” value with Jurkat cells [1] (3 days) is on record as “dose dependent increase of fluorescence signal”. Moreover, the “fluorescence intensity / cell surface signal compared with control sugar-treated cells” value in the assay with Jurkat cells [1] (biotin probe 6/fluorescein-streptavidin) is recorded as “increased fluorescence intensity”. For the same substance, the “fluorescent labeling after reacting with 3-azido-7-hydroxycoumarin probe” value in the assay on Jurkat cells [2] is “significant fluorescent labeling”. Moreover, in the assay on H. pylori (200 micromolar, two days, strains HS, HD, HU, HC), the “tagged fucosyl proteins isolated by anti-biotin immunoprecipitation” value is “several proteins were detected”. Moreover, the “biotinylated Fuc tags on CagA protein (protein blot)” value with H. pylori (HC strain, anti-CagA immunoprecipitation) was “specific signal is only detected in MOE-tagged HC strain”.
